Experimental data: article PMC7321301, “Characteristics of New Peptides GQLGEHGGAGMG, GEHGGAGMGGGQFQPV, EQGFLPGPEESGR, RLARAGLAQ, YGNPVGGVGH, and GNPVGGVGHGTTGT as Inhibitors of Enzymes Involved in Metabolic Syndrome and Antimicrobial Potential” (Molecules, 2020)
No end group written: not given here.

Tests used:
pancreatic lipase = molecular target: T1, pancreatic lipase (Homo sapiens, UniProt P16233); assay: Pancreatic lipase inhibitory activity (pNPA) and kinetics; type: biochemical; conditions: mean ± SD, triplicate
T1 sequence (P16233 17-465): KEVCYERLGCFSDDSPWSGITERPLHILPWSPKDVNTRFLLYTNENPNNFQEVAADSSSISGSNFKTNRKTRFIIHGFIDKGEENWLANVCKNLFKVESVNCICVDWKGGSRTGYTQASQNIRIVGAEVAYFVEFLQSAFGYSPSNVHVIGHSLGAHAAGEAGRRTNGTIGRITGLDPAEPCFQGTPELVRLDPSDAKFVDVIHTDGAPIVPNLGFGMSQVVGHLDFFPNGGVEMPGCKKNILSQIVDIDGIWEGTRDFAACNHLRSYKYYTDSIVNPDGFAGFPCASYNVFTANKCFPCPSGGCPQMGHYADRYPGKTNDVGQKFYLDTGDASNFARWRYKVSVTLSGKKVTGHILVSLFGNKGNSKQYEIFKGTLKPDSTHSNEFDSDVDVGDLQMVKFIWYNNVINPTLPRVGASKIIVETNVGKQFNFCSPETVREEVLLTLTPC
Experimental: For all inhibitory activity, IC50 was calculated. The IC50 value defined as the concentration of the extract inhibiting 50% of the enzyme activity was determined by measuring the enzyme inhibitory activity and peptide contents in each sample. The IC50 value was calculated from the plotted graph of the inhibition activity for the five different peptide concentrations.
Lipase inhibitory activity was determined with the method described by Jakubczyk et al.. The final volume of the reaction mixture was 150 μL (2 μL of the enzyme, 5 μL of the sample, 142 μL of 100 mM potassium phosphate buffer, pH 7.5, and 1 μL of a 100 mM p-nitrophenyl acetate (pNPA) solution in dimethyl sulfoxide (DMSO). Changes in absorbance at […] were measured using BioTek Microplate Readers.
Substrate solutions (5.0, 10.0, 15.0, and 20.0 mM) were prepared and used to determine the Michaelis constant (Km), the inhibition constant (Ki), and the maximum velocity (Vmax) of enzymes. The kinetic parameters were evaluated by Lineweaver–Burk’s method. The reaction conditions were the same as in the enzyme inhibitory activity assay.

HECa10 cells [1] = assay: LDH test; type: cell-based, murine; conditions: 24-h incubation, 0.1–100 µg/mL
Experimental: (§1) The study was conducted according to the procedure described by Rokicki et al.. HECa10 cells after 80–90% confluence were trypsinized (3 min, 37 °C), centrifuged (300 g, 5 min), counted, and plated in 96-well plates at a concentration of 1 × 10^4 cells/well. Then, 24 h after seeding, cells were washed with phosphate-buffered saline (PBS) solution and culture medium (Dulbecco’s Modified Eagle Medium (DMEM) + 10% fetal bovine serum (FBS) + antibiotics, all from Life Technologies, Warsaw, Poland) was added with test factors in concentrations: 0.1; 1; 5; 10; 50; 100 µg/mL). Then, 24 h after addition of the compounds, proliferation tests (MTT, NR, LDH) were performed. The color intensity was determined using a Fluostar Omega microplate reader. Results are presented as the mean ± SD of 3 independent experiments (n = 12).
The cells were seeded in a 96-well culture plate at a concentration of 1 × 10^4 cells/well. Then, 24 h after seeding, the cells were rinsed twice with PBS (Life Technologies, Poland) and resuspended in fresh growth medium. Peptide fractions were added at concentrations of 0 (control), 0.1, 1, 5, 10, 50, and 100 µg/mL. After 24 h incubation with the proteins, activity of released from cells lactate dehydrogenase was assessed (Pierce Ldh Cytotoxicity Assay Kit, Life Technologies, Warsaw Poland).The absorption was measured at a wavelength of 540 nm with the background cutoff at 490 nm (FLUOstar Omega, BMG Labtech GmbH, Ortenberg, Germany). The results are presented as the percentage of the control values (mean ± SD). Each assay was performed in triplicate (n = 18).

[2] = molecular target: T2, α-amylase from hog pancreas (Sus scrofa, UniProt P00690); assay: α-amylase inhibitory activity (starch, DNS) and kinetics; type: biochemical
T2 construct: α-amylase from hog pancreas (50 U/mg); from tissue; host or cells: hog pancreas
T2 sequence (P00690 16-511): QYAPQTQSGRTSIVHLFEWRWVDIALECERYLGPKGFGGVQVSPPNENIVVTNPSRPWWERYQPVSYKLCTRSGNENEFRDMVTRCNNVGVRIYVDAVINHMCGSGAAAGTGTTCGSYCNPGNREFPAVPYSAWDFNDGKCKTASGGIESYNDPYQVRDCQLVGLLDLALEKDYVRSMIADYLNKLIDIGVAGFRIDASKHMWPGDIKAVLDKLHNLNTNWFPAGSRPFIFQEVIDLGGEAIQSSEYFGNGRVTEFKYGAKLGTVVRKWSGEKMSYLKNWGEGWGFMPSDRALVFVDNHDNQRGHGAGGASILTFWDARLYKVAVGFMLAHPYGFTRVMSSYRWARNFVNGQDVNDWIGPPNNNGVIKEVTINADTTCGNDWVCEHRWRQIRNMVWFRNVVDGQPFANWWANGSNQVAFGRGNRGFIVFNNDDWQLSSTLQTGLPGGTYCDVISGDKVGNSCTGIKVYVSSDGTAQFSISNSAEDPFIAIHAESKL
Experimental: For all inhibitory activity, IC50 was calculated. […] The IC50 value was calculated from the plotted graph of the inhibition activity for the five different peptide concentrations. […] To measure the α-amylase inhibitory activity, a mixture of 25 μL of α-amylase solution and 25 μL of sample was first incubated at 40 °C for 5 min. Then, 50 μL of 1% (w/v) soluble starch (dissolved in 100 mM phosphate buffer containing 6 mM NaCl, pH 7) was added. After 10 min, the reaction was stopped by adding 100 μL of 3,5-dinitrosalicylic acid (DNS) and heating for 10 min. Then, the mixture was made up to 300 μL with double distilled water. After that, the absorbance at 540 nm was measured using BioTek Microplate Readers (EpochTM 2 BioTek, Bad Friedrichshall, Germany). The final results were compared with the activity of the same amount of enzyme without the inhibitor. All assays were carried out in triplicate. For IC50 value determination, the inhibitory activity for […] of samples was investigated. […] The kinetic parameters were evaluated by Lineweaver-Burk's method. The reaction conditions were the same as in the enzyme inhibitory activity assay.

HECa10 cells [3] = assay: Neutral red (NR) test; type: cell-based, murine; conditions: 24-h incubation, 0.1–100 µg/mL
Experimental: as §1
The cells were seeded in a 96-well culture plate at a concentration of 1 × 10^4 cells/well. Then, 24 h after seeding, the cells were rinsed twice with PBS (Life Technologies, Poland) and resuspended in fresh growth medium. Peptide fractions were added at concentrations of 0 (control), 0.1, 1, 5, 10, 50, and 100 µg/mL. After 24 h of incubation with the proteins, the uptake of the neutral red (NR kit, Sigma Aldrich, Poznań, Poland,) was assessed. The absorption was measured at a wavelength of 540 nm with the background cutoff at 690 nm (FLUOstar Omega, BMG Labtech GmbH, Ortenberg, Germany). The results are presented as the percentage of the control values (mean ± SD). Each assay was performed in triplicate (n = 18).

| Sequence | IC50 (pancreatic lipase) [µM] | LDH activity test, HECa10 cells compared to control (HECa10 cells [1]) | IC50 [2] [µM] | NR test, HECa10 cell count compared to control (HECa10 cells [3]) |
| --- | --- | --- | --- | --- |
| EQGFLPGPEESGR [ER-13, EQGFLPGPEESGR] | 54.8 | no statistically significant differences | 51.1 | no statistically significant differences |
| GEHGGAGMGGGQFQPV [GV-16, GEHGGAGMGGGQFQPV] | 41.9 | no statistically significant differences | 44.6 | no statistically significant differences |
| GNPVGGVGHGTTGT [GT-14, GNPVGGVGHGTTGT] | 86.1 | no statistically significant differences | 50 | no statistically significant differences |
| GQLGEHGGAGMG [GG-12, GQLGEHGGAGMG] | 56.6 | no statistically significant differences | 53 | no statistically significant differences |
| RLARAGLAQ [RQ-9, RLARAGLAQ] | 102 | no statistically significant differences | 69.9 | no statistically significant differences |
| YGNPVGGVGH [YH-10, YGNPVGGVGH] | 107 | no statistically significant differences | 80.3 | declined statistically significantly |
